From ChEMBL document CHEMBL5113452, “Synthesis and biological evaluation of hybrids from optically active ring-opened 3-N-butylphthalide derivatives and 4-fluro-edaravone as potential anti-acute ischemic stroke agents” (Bioorg Med Chem, 2022)
Active and inactive are the calls of the source. No cut-off for these calls is given here.

Experiments:
Rattus norvegicus [1] = assay: Neuroprotective activity against transient middle cerebral artery occlusion induced ischemia stroke Sprague-Dawley rat model assessed as increase in neuro-fucntional score at 4.53 mg/kg, iv and measured after 24 hrs by longa's method; type: functional, organism-based
Rattus norvegicus [2] = assay: Neuroprotective activity against transient middle cerebral artery occlusion induced ischemia stroke Sprague-Dawley rat model assessed as increase in neuro-fucntional score at 4.53 mg/kg, iv and measured after 24 hrs in presence of S-APB by longa's method; type: functional, organism-based
Rattus norvegicus [3] = assay: Neuroprotective activity against transient middle cerebral artery occlusion induced ischemia stroke Sprague-Dawley rat model assessed as increase in neuro-fucntional score at 4.10 mg/kg, iv and measured after 24 hrs in presence of NBP by longa's method; type: functional, organism-based; settings: dose 4.1 mg/kg
[4] = Toxicity in transient middle cerebral artery occlusion induced ischemia stroke Sprague-Dawley rat model assessed as change in body weight at 4.53 mg/kg, iv and measured after 24 hrs; type: organism-based; settings: in vivo
[5] = Toxicity in transient middle cerebral artery occlusion induced ischemia stroke Sprague-Dawley rat model assessed as change in body weight at 4.53 mg/kg, iv and measured after 24 hrs in presence of S-APB; type: organism-based; settings: in vivo
[6] = Toxicity in transient middle cerebral artery occlusion induced ischemia stroke Sprague-Dawley rat model assessed as change in body weight at 4.10 mg/kg, iv and measured after 24 hrs in presence of NBP; type: organism-based; settings: in vivo, 4.1 mg/kg
Rattus norvegicus [7] = assay: Neuroprotective activity against transient middle cerebral artery occlusion induced cerebral infraction Sprague-Dawley rat model assessed as decrease in cerebral infraction volume at 4.53 mg/kg, iv and measured after 24 hrs by TTC staining based assay; type: functional; set-up: scale not given: the % may be the effect or the level left
Rattus norvegicus [8] = assay: Neuroprotective activity against transient middle cerebral artery occlusion induced cerebral infraction Sprague-Dawley rat model assessed as decrease in cerebral infraction volume at 4.53 mg/kg, iv and measured after 24 hrs in presence of S-APB by TTC staining based assay; type: functional; set-up: scale not given: the % may be the effect or the level left
Rattus norvegicus [9] = assay: Neuroprotective activity against transient middle cerebral artery occlusion induced cerebral infraction Sprague-Dawley rat model assessed as decrease in cerebral infraction volume at 4.10 mg/kg, iv and measured after 24 hrs in presence of NBP by TTC staining based assay; type: functional; set-up: scale not given: the % may be the effect or the level left; settings: dose 4.1 mg/kg
Rattus norvegicus [10] = assay: Neuroprotective activity against transient middle cerebral artery occlusion induced cerebral infraction Sprague-Dawley rat model assessed as decrease in brain edema at 4.53 mg/kg, iv and measured after 24 hrs in presence of […]; type: functional, organism-based
Rattus norvegicus [11] = assay: Neuroprotective activity against transient middle cerebral artery occlusion induced cerebral infraction Sprague-Dawley rat model assessed as decrease in brain edema at 4.10 mg/kg, iv and measured after 24 hrs in presence of NBP; type: functional, organism-based; settings: dose 4.1 mg/kg
[12] = Elimination rate constant in Sprague-Dawley rat plasma at 4.53 mg/kg, iv and measured upto 24 hrs by LC-MS/MS analysis; type: ADME, organism-based
[13] = Half life in Sprague-Dawley rat plasma at 4.53 mg/kg, iv and measured upto 24 hrs by LC-MS/MS analysis; type: ADME, organism-based
[14] = Cmax in Sprague-Dawley rat plasma at 4.53 mg/kg, iv and measured upto 24 hrs by LC-MS/MS analysis; type: ADME, organism-based; set-up: dose 4.53 mg/kg, time < 24 hrs, route iv
[15] = C0 in Sprague-Dawley rat plasma at 4.53 mg/kg, iv and measured upto 24 hrs by LC-MS/MS analysis; type: ADME, organism-based
[16] = AUC (0-t) in Sprague-Dawley rat plasma at 4.53 mg/kg, iv and measured upto 24 hrs by LC-MS/MS analysis; type: ADME, organism-based; set-up: dose 4.53 mg/kg, time < 24 hrs, route iv
[17] = AUC (0-infinity) in Sprague-Dawley rat plasma at 4.53 mg/kg, iv and measured upto 24 hrs by LC-MS/MS analysis; type: ADME, organism-based; set-up: time < 24 hrs, dose 4.53 mg/kg, route iv
[18] = AUMC (0-t) in Sprague-Dawley rat plasma at 4.53 mg/kg, iv and measured upto 24 hrs by LC-MS/MS analysis; type: ADME, organism-based; settings: in vivo
[19] = AUMC (0-infinity) in Sprague-Dawley rat plasma at 4.53 mg/kg, iv and measured upto 24 hrs by LC-MS/MS analysis; type: ADME, organism-based; settings: in vivo
[20] = Clearance in Sprague-Dawley rat plasma at 4.53 mg/kg, iv and measured upto 24 hrs by LC-MS/MS analysis; type: ADME, organism-based
[21] = MRT in Sprague-Dawley rat plasma at 4.53 mg/kg, iv and measured upto 24 hrs by LC-MS/MS analysis; type: ADME, organism-based
[22] = Volume of distribution at steady state in Sprague-Dawley rat plasma at 4.53 mg/kg, iv and measured upto 24 hrs by LC-MS/MS analysis; type: ADME, organism-based; settings: read-out: Vdss
[23] = Elimination rate constant in Sprague-Dawley rat plasma at 4.53 mg/kg, iv and measured upto 24 hrs in presence of S-NBP by LC-MS/MS analysis; type: ADME, organism-based
[24] = Half life in Sprague-Dawley rat plasma at 4.53 mg/kg, iv and measured upto 24 hrs in presence of S-NBP by LC-MS/MS analysis; type: ADME, organism-based
[25] = Cmax in Sprague-Dawley rat plasma at 4.53 mg/kg, iv and measured upto 24 hrs in presence of S-NBP by LC-MS/MS analysis; type: ADME, organism-based; set-up: time < 24 hrs, dose 4.53 mg/kg, route iv
[26] = C0 in Sprague-Dawley rat plasma at 4.53 mg/kg, iv and measured upto 24 hrs in presence of S-NBP by LC-MS/MS analysis; type: ADME, organism-based
[27] = AUC (0-t) in Sprague-Dawley rat plasma at 4.53 mg/kg, iv and measured upto 24 hrs in presence of S-NBP by LC-MS/MS analysis; type: ADME, organism-based; set-up: time < 24 hrs, dose 4.53 mg/kg, route iv
[28] = AUC (0-infinity) in Sprague-Dawley rat plasma at 4.53 mg/kg, iv and measured upto 24 hrs in presence of S-NBP by LC-MS/MS analysis; type: ADME, organism-based; set-up: time < 24 hrs, dose 4.53 mg/kg, route iv
[29] = AUMC (0-t) in Sprague-Dawley rat plasma at 4.53 mg/kg, iv and measured upto 24 hrs in presence of S-NBP by LC-MS/MS analysis; type: ADME, organism-based; settings: in vivo
[30] = AUMC (0-infinity) in Sprague-Dawley rat plasma at 4.53 mg/kg, iv and measured upto 24 hrs in presence of S-NBP by LC-MS/MS analysis; type: ADME, organism-based; settings: in vivo
[31] = Clearance in Sprague-Dawley rat plasma at 4.53 mg/kg, iv and measured upto 24 hrs in presence of S-NBP by LC-MS/MS analysis; type: ADME, organism-based
[32] = MRT in Sprague-Dawley rat plasma at 4.53 mg/kg, iv and measured upto 24 hrs in presence of S-NBP by LC-MS/MS analysis; type: ADME, organism-based
[33] = Volume of distribution at steady state in Sprague-Dawley rat plasma at 4.53 mg/kg, iv and measured upto 24 hrs in presence of S-NBP by LC-MS/MS analysis; type: ADME, organism-based; settings: read-out: Vdss

## CC1=NN(c2ccc(F)cc2)C(=O)C1
Rattus norvegicus [1]
  Activity: Active
Rattus norvegicus [2]
  Activity: Active
Rattus norvegicus [3]
  Activity: Active
[4]
  Activity: Non-Toxic
[5]
  Activity: Non-Toxic
[6]
  Activity: Non-Toxic
Rattus norvegicus [7]
  Activity: 32.46%
Rattus norvegicus [8]
  Activity: 68.37%
Rattus norvegicus [9]
  Activity: 57.7%
Rattus norvegicus [10]
  Activity: Active
Rattus norvegicus [11]
  Activity: Active
[12]
  k el at 24 h: 0.000171 s⁻¹
[13]
  half-life: 1.14 h
[14]
  Cmax: 2960 ng/mL
[15]
  C0 at 24 h: 4910 ng/mL
[16]
  AUC(0-t) at 24 h: 1350 ng·h/mL
[17]
  AUC(0-inf): 1360 ng·h/mL
[18]
  AUMCt: 903 hr.hr.ng/ml
[19]
  AUMC: 982 hr.hr.ng/ml
[20]
  clearance: 55.9 mL/min/kg
[21]
  MRT: 0.717 h
[22]
  Vd: 2.39 L/kg
[23]
  k el at 24 h: 3.75e-05 s⁻¹
[24]
  half-life: 5.16 h
[25]
  Cmax: 6100 ng/mL
[26]
  C0 at 24 h: 12400 ng/mL
[27]
  AUC(0-t) at 24 h: 2750 ng·h/mL
[28]
  AUC(0-inf): 2780 ng·h/mL
[29]
  AUMCt: 4690 hr.hr.ng/ml
[30]
  AUMC: 5830 hr.hr.ng/ml
[31]
  clearance: 27.4 mL/min/kg
[32]
  MRT: 2.1 h
[33]
  Vd: 3.45 L/kg
